The target in data set [1] is T1, human cannabis CB1 receptor (Homo sapiens, UniProt P21554).
T1 construct: expressed in transfected cells; host or cells: human embryonic kidney (HEK) cells, transient, Semliki Forest Virus system
Put plainly: Affinity for cannabinoid CB1 receptors, [3H]-CP-55,940 radioligand binding on HEK cell membranes. The protocol: The affinity of the compounds of the invention for cannabinoid CB1 receptors was determined using membrane preparations of human embryonic kidney (HEK) cells in which the human cannabis CB1 receptor is transiently transfected using the Semliki Forest Virus system in conjunction with [3H]-CP-55,940 as radioligand. After incubation of a freshly prepared cell membrane preparation with the [3H]-ligand, with or without addition of compounds of the invention, separation of bound and free ligand was performed by filtration over glassfiber filters. Radioactivity on the filter was measured by liquid scintillation counting.

For data set [2] the following is noted: doses of 10 and 20 mg daily; cited from earlier work.

Like-named read-outs stand apart in the source and are kept apart here.

T1 sequence (P21554 whole entry): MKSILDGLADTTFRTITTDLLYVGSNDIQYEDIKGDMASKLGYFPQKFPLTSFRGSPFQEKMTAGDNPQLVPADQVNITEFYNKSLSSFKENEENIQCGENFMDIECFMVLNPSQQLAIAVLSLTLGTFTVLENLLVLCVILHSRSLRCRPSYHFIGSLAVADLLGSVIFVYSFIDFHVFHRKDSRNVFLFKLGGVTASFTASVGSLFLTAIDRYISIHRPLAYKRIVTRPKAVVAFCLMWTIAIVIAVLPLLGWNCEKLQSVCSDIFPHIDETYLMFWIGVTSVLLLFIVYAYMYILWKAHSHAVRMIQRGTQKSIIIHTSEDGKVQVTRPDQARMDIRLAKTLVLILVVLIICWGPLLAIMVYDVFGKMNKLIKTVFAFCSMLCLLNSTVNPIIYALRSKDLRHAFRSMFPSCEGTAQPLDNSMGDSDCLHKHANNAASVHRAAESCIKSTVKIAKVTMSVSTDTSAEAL

As usually defined, the IC50 is the point on the concentration scale where inhibition reaches its midpoint. As usually defined, the melting point is the temperature of the solid-liquid transition. `CCCCOc1ncc(C(=O)N[C@@H]2CCCC[C@H]2O)cc1-c1cc(C(F)(F)F)ccc1F` [Example 2, 6-Butoxy-5-(2-fluoro-5-trifluoromethyl-phenyl)-N-((1R,2R)-2-hydroxy-cyclohexyl)-nicotinamide]: the melting point lay within 172 to 178 °C. The IC50 in data set [1] (affinity for the CB1 receptor, read-out: IC50) stood at 186 nM.

Turning to `CCCCOc1ncc(C(=O)N[C@@H]2CCCC[C@H]2O)cc1-c1ccc(Cl)cc1` [Example 3, 6-Butoxy-5-(4-chloro-phenyl)-N-((1R,2R)-2-hydroxy-cyclohexyl)-nicotinamide], the IC50 in data set [1] came to 39 nM.

`O=C(N[C@@H]1CCCC[C@H]1O)c1cnc(OCC2CC2)c(-c2cc(C(F)(F)F)ccc2F)c1` [Example 7, 6-Cyclopropylmethoxy-5-(2-fluoro-5-trifluoromethyl-phenyl)-N-((1R,2R)-2-hydroxy-cyclohexyl)-nicotinamide]: the IC50 in data set [1] turned out to be 102 nM.

For `Cc1c(C(=O)NN2CCCCC2)nn(-c2ccc(Cl)cc2Cl)c1-c1ccc(Cl)cc1` [SR 141716], in data set [2], the “body weight compared to placebo” value is “significantly reduced body weight”.
